Legend:
[1] = system: VR2332 (US strain of PRRSV); test: VR2332 (US strain of PRRSV) entry assay in MA104 cells (Example 10); settings: 4 h pretreatment, moi 10, overnight
influenza strain Udorn = test: Influenza virus time course in MDCK cells, immunofluorescence and plaque assay (Example 12); assay type: cell-based
PRRSV strain, VR2385 = test: Efficacy of tylvalosin in feed for the control of PRRSV in challenged pigs (Example 14); assay type: in vivo, pig; settings: for Mean maximum respiratory score: score 0-6
[2] = system: chicken white blood cells; test: Intracellular accumulation in chicken white blood cells; assay type: in vitro ADME; settings: chicken white blood cells
Procedure: (§1) Pig blood was collected in Heparin-coated BD vacutainers (6). 20 mL of blood and 30 mL of phosphate buffered saline (PBS) were mixed in a 50 mL conical centrifuge tube. This was repeated in order to obtain 3 such tubes. The mixtures were centrifuged for 10 min at 2050×g. The white blood cells, together with some red blood cells below, were harvested into a 50 mL conical centrifuge tube. PBS was added to about 50 mL. A 63% solution of Percoll was made as follows: 6.3 mL Percoll (Sigma), 1.0 mL 1.5 M NaCl, 2.7 mL H2O. 10 mL of 63% Percoll was added to each of two 50 mL conical centrifuge tubes. 25 mL of the resuspended white blood cells were carefully layered on top of the each of the Percoll solutions. A sharp interface was produced. The material was centrifuged at 3000×g for 10 min. […] The white blood cells were harvested in PBS (50 mL) and centrifuged at 500×g for 10 min. The cell pellet was resuspended in medium (Glasgow minimum essential medium containing penicillin and streptomycin). A viable cell count was made using trypan blue. The same method used for isolation of pig WBCs was used for the chicken WBCs, with the exception that heparin (100 I.U./mL) was prepared and mixed with an equal volume of chicken whole blood.
All tubes were placed on a rotary mixing machine, at 37° C. Supernatant and cell samples were harvested at the times described in the figure legends. Duplicate samples were used for each antibiotic for each time point.
(§2) All the supernatant and cell samples were transported frozen (at approximately −20° C.) to York Bioanalytical Solutions (York, England) for analysis. Briefly, 0.25 g of buffer (RPMI medium containing 10% FCS) was weighed into a polypropylene tube. A 50 μL volume of the appropriate working solution was added to the quality control (QC) samples. Methanol (50 μL) was added to each blank sample used for preparation of calibration standards, recovery samples and reagent blanks. A 2.5 mL volume of 0.1 M phosphate buffer was added to each sample, vortex mixed for approximately 1 min and then centrifuged at 3220×g for 10 min at 4° C.
(§3) For the liquid-liquid clean-up phase, an aliquot (100 μL) of the supernatant was transferred to a polypropylene tube. The pH was adjusted to pH 8-8.5 by the addition of 0.1 M NaOH, and vortex mixed. Ethyl acetate (5 mL) was added and after capping, the whole mixture was shaken for 10 min and then centrifuged at 3220×g for 10 min at 4° C.
(§4) Ammonium acetate (20 mM; pH native)—formic acid, 1000:3, v/v (100 μL) was added to each well in a 2 mL polypropylene collection plate. An aliquot of the ethyl acetate mixture (100 μL) was transferred to the polypropylene collection plate and evaporated under nitrogen (40° C.) until the ethyl acetate was fully evaporated whilst the ammonium acetate remained. Methanol (100 μL) was added to each well, excluding the calibration standards.
(§5) To each well containing a calibration standard, 100 μL of the appropriate calibration working solution was added. Samples were then vortex mixed for at least 10 min and submitted for liquid chromatography with tandem mass spectrometric analysis. The method stated was applicable to the samples of media (and the calibration standards and quality control samples).
(§6) For the cells, the sample tubes were weighed, and 100 μL of acetonitrile was added. The samples were vortex mixed for 10 sec, then centrifuged at 10285×g at 4° C. for 5 min. The sample was transferred to a polypropylene tube. The original sample tube was washed with 0.1 M phosphate buffer (1 mL). This was transferred to the polypropylene tube. A second wash of 1 mL was made, then a final wash of 0.5 mL. The polypropylene tube was now at the same stage as the end of the liquid extraction, but with the cells present rather than media. This was then taken through the sample preparation as described above. […]

[3] = system: PR8 strain of influenza A virus; test: Influenza infection of MDCK cells, immunofluorescence (Example 4), strain PR8; assay type: cell-based, human influenza; settings: 1 μg/ml, 4 h pretreatment, moi 10, fixed 4 h post infection
[4] = cited from earlier work
pig white blood cells = test: Intracellular accumulation in pig white blood cells; assay type: in vitro ADME
Procedure: as §1
Cells were incubated with 10 mg/mL of each antibiotic. All tubes were placed on a rotary mixing machine, at 37° C. Supernatant and cell samples were harvested at the times described in the figure legends. Duplicate samples were used for each antibiotic for each time point.
as §2, §3, §4, §5, §6

[5] = previous study (Tsuchiya et al., 1981); cited from earlier work
[6] = orally administered, in vivo (Okamoto et al., 1981); cited from earlier work
[7] = Group 1, 100 ppm in feed, Trial Day 17
[8] = Group 1, 100 ppm in feed, Trial Day 28
[9] = Group 2, 200 ppm in feed, Trial Day 17
[10] = Group 2, 200 ppm in feed, Trial Day 28
[11] = Group 3, 600 ppm in feed, Trial Day 17
[12] = Group 3, 600 ppm in feed, Trial Day 28

CCC1OC(=O)CC(OC(C)=O)C(C)C(OC2OC(C)C(OC3CC(C)(O)C(OC(=O)CC(C)C)C(C)O3)C(N(C)C)C2O)C(CC=O)CC(C)C(=O)C=CC(C)=CC1COC1OC(C)C(O)C(OC)C1OC (stereo not drawn) [tylvalosin, 3-O acetyl-4″-O-isovaleryltylosin]
inhibition of VR2332 infection [1]: sensitive | influenza strain Udorn infection over the 24 hour period (immunofluorescence and plaque assay) (influenza strain Udorn): inhibited | severity of macroscopic pneumonia (PRRSV strain, VR2385; 100, 200, 600 ppm in feed versus non-treated controls): No differences | Mean average rectal temperature (PRRSV strain, VR2385; Group 1, 100 ppm in feed): 103.6 ± 0.1 | Mean maximum rectal temperature (PRRSV strain, VR2385; Group 1, 100 ppm in feed): 104.5 ± 0.2 A | Mean microscopic PRRSV lung lesion score (PRRSV strain, VR2385; Group 1, 100 ppm in feed, Necropsy 1 (Trial Day 17, 10 days post infection)): 0.2 ± 0.2 A | Mean microscopic PRRSV lung lesion score (PRRSV strain, VR2385; Group 1, 100 ppm in feed, Necropsy 2 (Trial Day 28, 21 days post infection)): 2.1 ± 0.4 | Average daily gain (PRRSV strain, VR2385; Group 1, 100 ppm in feed, Trial Day 7): 1.57 ± .09 lbs | Mean real-time RT-PCR (PRRSV RNA copy numbers in serum) (PRRSV strain, VR2385; Group 1, 100 ppm in feed, Trial Day 10): 15,289.88 B, C | Average daily gain (PRRSV strain, VR2385; Group 1, 100 ppm in feed, Trial Day 14): 1.5 ± .05 lbs | Average daily gain (PRRSV strain, VR2385; [7]): 1.59 ± .05 A lbs | Mean real-time RT-PCR (PRRSV RNA copy numbers in serum) (PRRSV strain, VR2385; [7]): 95,315.72 | Mean real-time RT-PCR (PRRSV RNA copy numbers in serum) (PRRSV strain, VR2385; Group 1, 100 ppm in feed, Trial Day 21): 36,451.13 | Average daily gain (PRRSV strain, VR2385; [8]): 1.42 ± .05 lbs | Mean real-time RT-PCR (PRRSV RNA copy numbers in serum) (PRRSV strain, VR2385; [8]): 5,301.63 | Mean maximum respiratory score (PRRSV strain, VR2385; Group 1, 100 ppm in feed): 0.5 ± 0.1 A* | Mean average rectal temperature (PRRSV strain, VR2385; Group 2, 200 ppm in feed): 103.7 ± 0.1 | Mean maximum rectal temperature (PRRSV strain, VR2385; Group 2, 200 ppm in feed): 104.7 ± 0.2 A | Mean microscopic PRRSV lung lesion score (PRRSV strain, VR2385; Group 2, 200 ppm in feed, Necropsy 1 (Trial Day 17, 10 days post infection)): 2.0 ± 0.3 B | Mean microscopic PRRSV lung lesion score (PRRSV strain, VR2385; Group 2, 200 ppm in feed, Necropsy 2 (Trial Day 28, 21 days post infection)): 1.9 ± 0.3 | Average daily gain (PRRSV strain, VR2385; Group 2, 200 ppm in feed, Trial Day 7): 1.52 ± .10 lbs | Mean real-time RT-PCR (PRRSV RNA copy numbers in serum) (PRRSV strain, VR2385; Group 2, 200 ppm in feed, Trial Day 10): 19,336.8 C | Average daily gain (PRRSV strain, VR2385; Group 2, 200 ppm in feed, Trial Day 14): 1.45 ± .06 lbs | Average daily gain (PRRSV strain, VR2385; [9]): 1.59 ± .07 A, B lbs | Mean real-time RT-PCR (PRRSV RNA copy numbers in serum) (PRRSV strain, VR2385; [9]): 78,804.81 | Mean real-time RT-PCR (PRRSV RNA copy numbers in serum) (PRRSV strain, VR2385; Group 2, 200 ppm in feed, Trial Day 21): 18,724.88 | Average daily gain (PRRSV strain, VR2385; [10]): 1.53 ± .07 lbs | Mean real-time RT-PCR (PRRSV RNA copy numbers in serum) (PRRSV strain, VR2385; [10]): 892.36 | Mean maximum respiratory score (PRRSV strain, VR2385; Group 2, 200 ppm in feed): 0.6 ± 0.2 A | Mean average rectal temperature (PRRSV strain, VR2385; Group 3, 600 ppm in feed): 103.8 ± 0.1 | Mean maximum rectal temperature (PRRSV strain, VR2385; Group 3, 600 ppm in feed): 105.8 ± 0.3 B | Mean microscopic PRRSV lung lesion score (PRRSV strain, VR2385; Group 3, 600 ppm in feed, Necropsy 1 (Trial Day 17, 10 days post infection)): 2.0 ± 0.3 B | Mean microscopic PRRSV lung lesion score (PRRSV strain, VR2385; Group 3, 600 ppm in feed, Necropsy 2 (Trial Day 28, 21 days post infection)): 1.5 ± 0.3 | Average daily gain (PRRSV strain, VR2385; Group 3, 600 ppm in feed, Trial Day 7): 1.83 + .16 lbs | Mean real-time RT-PCR (PRRSV RNA copy numbers in serum) (PRRSV strain, VR2385; Group 3, 600 ppm in feed, Trial Day 10): 54,487.19 A, B | Average daily gain (PRRSV strain, VR2385; Group 3, 600 ppm in feed, Trial Day 14): 1.47 ± .06 lbs | Average daily gain (PRRSV strain, VR2385; [11]): 1.44 ± .04 A, B lbs | Mean real-time RT-PCR (PRRSV RNA copy numbers in serum) (PRRSV strain, VR2385; [11]): 146,655.4 | Mean real-time RT-PCR (PRRSV RNA copy numbers in serum) (PRRSV strain, VR2385; Group 3, 600 ppm in feed, Trial Day 21): 30,260.69 | Average daily gain (PRRSV strain, VR2385; [12]): 1.47 ± .06 lbs | Mean real-time RT-PCR (PRRSV RNA copy numbers in serum) (PRRSV strain, VR2385; [12]): 1,292.31 | Mean maximum respiratory score (PRRSV strain, VR2385; Group 3, 600 ppm in feed): 1.8 ± 0.3 B | clinical disease and viremia associated with PRRSV infection (PRRSV strain, VR2385; lower doses (in feed)): appears to reduce clinical disease and viremia | average intracellular concentration ([2]; 10 μg/mL, 15 min): 89.8 μg/mg cells | intracellular concentration ([2]; 10 μg/mL, 60 min): 122.9 μg/mg cells | intracellular:extracellular ratio ([2]; 60 min): 19 fold | inhibition of infection of MDCK cells [3]: completely inhibited | pKa [4]: 7.6 | average intracellular concentration (pig white blood cells; 10 min): 57.4 μg/mg cells | average intracellular:extracellular ratio (IC:EC) (pig white blood cells; 10 min): 8.68 | average intracellular:extracellular ratio (IC:EC) (pig white blood cells; 10 min, listed as Tylvalosin): 9 | intracellular concentration (pig white blood cells; 20 min): 61.45 μg/mg cells | lipophilicity [5]: more lipophilic than either tylosin or 3AT | blood levels [6]: higher blood levels than tylosin
